Laboratory results reported in US11241453B2, “Arsenic compositions” (Eupharma Pty Ltd, priority 2016, dated 2022).
Values joined by “and” are separate entries in the source; they are usually repeats but may differ in a detail not shown here. Identical values can stand only once. Like-named read-outs stand apart in the source and are kept apart here.

Key:
[1] = cited from earlier work
[2] = cited from earlier work; remark: listed apart in the source
[3] = Dissolution in near neutral solution at pH 6.5; assay type: physicochemical; details: for Time until capsule opens: pH 6.5, 150 mls, 37° C., stirred
Description: Dissolution experiments were carried out on NaHAs2O4 at 2 different pH levels. Firstly, simulated gastric fluid (pH 1.24) was used, then a near neutral solution at pH 6.5. Prior to addition of the capsules, 150 mls of the dissolution solution was heated to 37° C. and the solution contained a spin bar at a speed of 2. The appropriate capsule was then added.

[4] = assay type: physicochemical
[5] = gelatin capsule in 150 mL simulated gastric solution, approx. pH 1.2, 37° C.

Substance | Solubility (in words) ([1]; neutral pH) | Solubility in water (in words) ([1]; physiological or acidic pH) | Time required for complete dissolution ([2]; 0.1 M NaOH) | Dissolution (in words) ([2]; in vitro, strong stirring, low pH) | Time until capsule opens ([3]; 1 mg capsule) | Time until capsule opens ([3]; 10 mg capsule) | Time until powder was completely dissolved ([3]; near neutral solution pH 6.5, 37° C.) | Time to dissolve ([3]; pH 7) | Time until capsule opens ([4]; 10 mg capsule, pH 1.24, 150 mls, 37° C., stirred) | Time to complete dissolution in gastric juices [4] | Time to complete dissolution in gastric juices ([4]; 'even less than') | Time until capsule shell had dissolved [4, 5] | Time until contents had completely dissolved [4, 5] | Time to dissolve ([4]; pH about 1) | Time until powder was completely dissolved ([4]; simulated gastric fluid pH 1.24, 37° C.) | Dissolution in stomach acid (in words) ([4]; stomach acid)
arsenic trioxide | only slightly soluble | only sparingly soluble | 15 to 20 min | very slow process | – | – | – | – | – | – | – | – | – | – | – | –
sodium diarsenic tetraoxide [NaHAs2O4] | – | – | – | – | 50 s and 45 s | 55 s and 50 s | less than two minutes | well under a minute | 35 s and 40 s | less than 1 min | less than 30 seconds | less than or about one minute | ≤ 2 min | less than 10 seconds | less than two minutes | very rapidly dissolved in stomach acid without any precipitation
